Measurements as given in patent publication US11945822B2, “Pyrazolo-triazine and/or pyrazolo-pxrimidine derivatives as selective inhibitor of cyclin dependent kinase” (QURIENT CO., LTD., priority 2018, dated 2024).
Like-named read-outs stand apart in the source and are kept apart here.

How the values were obtained:
CDK2/Cyclin A = target: T1, CDK2/Cyclin A (Homo sapiens, UniProt P24941); experiment: Enzymatic assay for CDK2 (FRET based LANCE Ultra kinase assay); format: biochemical
T1 construct: purchased Invitrogen PV6290
Method in brief: (§1)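 Each CDK complex ([…]) phosphorylated 68 nM ULight-MBP peptide with ATP at Km for 60 min at 23° C., against 8 compound doses (4-fold dilutions). EDTA/Eu-anti-phospho-MBP detection, 60 min, then TR-FRET emission at 615 and 665 nm.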

CDK1/Cyclin B = target: T2, CDK1/Cyclin B (Homo sapiens, UniProt P06493); experiment: Enzymatic assay for CDK1 (FRET based LANCE Ultra kinase assay); format: biochemical
T2 construct: purchased Invitrogen PR4768C
T2 sequence (P06493 whole entry): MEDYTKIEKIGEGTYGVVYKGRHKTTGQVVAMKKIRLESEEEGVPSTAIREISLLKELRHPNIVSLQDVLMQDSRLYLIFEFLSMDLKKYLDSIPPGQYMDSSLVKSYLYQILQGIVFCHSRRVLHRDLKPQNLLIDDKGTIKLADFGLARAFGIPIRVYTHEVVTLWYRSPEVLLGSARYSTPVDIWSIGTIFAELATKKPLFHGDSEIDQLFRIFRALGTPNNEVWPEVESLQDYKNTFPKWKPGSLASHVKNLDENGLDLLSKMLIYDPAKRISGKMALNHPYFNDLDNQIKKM
T2 sequence (P14635 whole entry partner): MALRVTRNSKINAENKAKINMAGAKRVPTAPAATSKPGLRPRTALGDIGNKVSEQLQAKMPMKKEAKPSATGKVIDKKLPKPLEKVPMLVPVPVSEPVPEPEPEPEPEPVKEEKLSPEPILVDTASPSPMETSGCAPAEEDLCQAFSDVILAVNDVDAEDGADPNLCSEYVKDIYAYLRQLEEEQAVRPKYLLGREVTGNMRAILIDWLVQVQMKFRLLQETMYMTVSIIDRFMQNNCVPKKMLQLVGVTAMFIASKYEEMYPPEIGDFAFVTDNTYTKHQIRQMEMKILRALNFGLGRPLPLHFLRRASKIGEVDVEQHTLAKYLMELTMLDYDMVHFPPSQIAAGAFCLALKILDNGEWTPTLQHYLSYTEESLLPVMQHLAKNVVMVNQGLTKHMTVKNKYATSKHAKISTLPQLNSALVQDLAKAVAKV
Method in brief: as §1

OVCAR-3 = experiment: Cellular OVCAR-3 viability assay (CellTiter-Glo, 72 hours); format: cell-based; conditions: Homo sapiens
From the text: Human T-cell acute lymphoblastic leukemia cell line, MOLT-4 (ATCC, Cat #CRL-1582), Human multiple myeloma cell line, RPMI-8226 (Invitrogen, Cat #22400-089) and MM.1S (ATCC, Cat #CRL-2974), NSCLC (Non-small cell lung cancer) cell line H460 (ATCC, Cat #HTB-177), Human colon colorectal carcinoma cell line HCT116 (ATCC, Cat #CCL-247), Human acute monocytic leukemia cell line MV4-11 (ATCC, Cat #CRL-9591), OVCAR-3 (ATCC, Cat #HTB-161) and A2780 (ECACC, Cat #93112519) were obtained from ATCC. Cells were grown in RPMI-1640 media (Invitrogen, Cat #22400-089) supplemented with 10% FBS (Invitrogen, Cat #10099141) and 1% penicillin/streptomycin (Invitrogen, Cat #15070063) and cultured at 37° C., 5% CO2 in a humidified chamber. All cell lines were routinely tested for mycoplasma.
The effect of the CDK7 inhibitor to inhibit the growth of target cancer cells was evaluated through the 72 hours time period of viability assay. Briefly, the candidate cell line ware plated in 96 well plate at the following density of cells respectively. 1×10^4 cells/well for MOLT-4, RPMI-8226, MV4-11 and MM.1S, 5×10^3 for H460, HCT116 and OVCAR-3 and IX 10^3 for A2780. After 24 hours, the cells were treated with various concentrations of the compound (ranging from 0.0015 uM to 10 uM). DMSO solvent without compound served as a control and final DMSO concentration less than 0.1%. After 72 hours of incubation at 37° C., 5% CO2 incubator, cells were analyzed for the viability using the CellTiter-Glo Luminescent Cell Viability Assay (Promega, Cat #G7570). All viability assays were performed in duplicate and Luminescence was read using an Envision (Perkin Elmer, USA). Data was analyzed using XLfit software.

A2780 = experiment: Cellular A2780 viability assay (CellTiter-Glo, 72 hours); format: cell-based; conditions: Homo sapiens
Method in brief: (§2)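 Compound exposure lasted 72 h at 37° C, 5% CO2, over 0.0015–10 uM, DMSO kept under 0.1%, with dosing 24 h after seeding. Seeding: A2780 1×10^3, OVCAR-3 5×10^3, MM.1S 1×10^4 cells/well in 10% FBS RPMI-1640. Duplicate CellTiter-Glo luminescence readout.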

CDK5/p25 = target: T3, CDK5/p25 (Homo sapiens, UniProt Q00535); experiment: Enzymatic assay for CDK5 (FRET based LANCE Ultra kinase assay); format: biochemical
T3 construct: purchased Invitrogen PR8543B
T3 sequence (Q00535 whole entry): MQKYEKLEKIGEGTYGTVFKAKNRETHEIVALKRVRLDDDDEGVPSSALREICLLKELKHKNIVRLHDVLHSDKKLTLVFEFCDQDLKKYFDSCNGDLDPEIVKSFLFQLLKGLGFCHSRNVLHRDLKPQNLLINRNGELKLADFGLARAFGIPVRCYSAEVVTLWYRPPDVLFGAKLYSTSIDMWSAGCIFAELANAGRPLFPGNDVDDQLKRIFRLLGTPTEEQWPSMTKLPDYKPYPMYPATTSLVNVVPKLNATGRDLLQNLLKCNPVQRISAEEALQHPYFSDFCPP
T3 sequence (Q15078 99-307 partner limits assumed): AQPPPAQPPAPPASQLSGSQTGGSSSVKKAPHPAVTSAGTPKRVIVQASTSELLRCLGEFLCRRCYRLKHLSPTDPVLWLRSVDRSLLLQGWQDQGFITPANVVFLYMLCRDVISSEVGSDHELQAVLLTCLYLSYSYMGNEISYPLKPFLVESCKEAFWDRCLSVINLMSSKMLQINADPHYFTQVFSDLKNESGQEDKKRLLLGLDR
Method in brief: as §1

CDK7/Cyclin H/MNAT1 = target: T4, CDK7/Cyclin H/MNAT1 (Homo sapiens, UniProt P50613); experiment: Enzymatic assay for CDK7 (FRET based LANCE Ultra kinase assay); format: biochemical
T4 construct: purchased Invitrogen PR6749B
T4 sequence (P50613 whole entry): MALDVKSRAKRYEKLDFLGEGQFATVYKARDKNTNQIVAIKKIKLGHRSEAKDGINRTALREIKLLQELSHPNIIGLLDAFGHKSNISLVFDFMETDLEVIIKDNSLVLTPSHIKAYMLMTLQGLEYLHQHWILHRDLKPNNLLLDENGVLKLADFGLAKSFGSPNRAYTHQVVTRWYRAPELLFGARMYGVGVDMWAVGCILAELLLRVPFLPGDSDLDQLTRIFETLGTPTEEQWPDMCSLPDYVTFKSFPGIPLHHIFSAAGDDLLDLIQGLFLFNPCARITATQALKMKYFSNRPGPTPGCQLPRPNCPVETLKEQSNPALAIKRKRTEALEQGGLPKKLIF
T4 sequence (P51946 whole entry partner): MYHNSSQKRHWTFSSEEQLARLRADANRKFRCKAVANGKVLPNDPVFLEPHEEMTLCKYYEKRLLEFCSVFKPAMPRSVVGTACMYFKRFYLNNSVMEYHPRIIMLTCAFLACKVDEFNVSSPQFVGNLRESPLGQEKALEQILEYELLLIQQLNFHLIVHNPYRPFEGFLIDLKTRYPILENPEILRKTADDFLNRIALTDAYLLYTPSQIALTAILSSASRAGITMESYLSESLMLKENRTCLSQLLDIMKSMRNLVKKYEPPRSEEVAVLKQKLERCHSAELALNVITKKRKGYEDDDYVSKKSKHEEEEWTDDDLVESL
T4 sequence (P51948 whole entry partner): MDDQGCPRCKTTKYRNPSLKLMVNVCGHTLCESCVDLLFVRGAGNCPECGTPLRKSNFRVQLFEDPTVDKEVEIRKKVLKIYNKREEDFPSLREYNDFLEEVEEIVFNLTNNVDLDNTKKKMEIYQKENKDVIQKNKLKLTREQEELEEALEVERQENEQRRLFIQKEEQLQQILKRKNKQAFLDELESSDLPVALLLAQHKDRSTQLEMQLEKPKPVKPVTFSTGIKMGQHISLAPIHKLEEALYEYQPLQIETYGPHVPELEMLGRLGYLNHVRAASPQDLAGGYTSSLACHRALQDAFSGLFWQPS
Method in brief: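 Inhibition was measured at Km ATP by time-resolved FRET between a Eu anti-phospho antibody and a phosphorylated ULight peptide. The enzyme was the purified CDK7/cyclin complex, and data were curve-fitted.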

H460 = experiment: Cellular H460 viability assay (CellTiter-Glo, 72 hours); format: cell-based; conditions: Homo sapiens, NCI-H460
Method in brief: (§3)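 Luminescent ATP read-out (CellTiter-Glo) after 72 h compound exposure at 37 °C/5% CO2; duplicate wells; vehicle control DMSO <0.1% final; seeding density set per cell line.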

MOLT-4 = experiment: Cellular MOLT-4 viability assay (CellTiter-Glo, 72 hours); format: cell-based; conditions: Homo sapiens, MOLT4 viability assay
Method in brief: as §3

RPMI-8226 = experiment: Cellular RPMI-8226 viability assay (CellTiter-Glo, 72 hours); format: cell-based; conditions: Homo sapiens
Method in brief: as §3

HCT116 = experiment: Cellular HCT116 viability assay (CellTiter-Glo, 72 hours); format: cell-based; conditions: Homo sapiens, HCT-116
Method in brief: as §3

MM.1S = experiment: Cellular MM.1S viability assay (CellTiter-Glo, 72 hours); format: cell-based; conditions: Homo sapiens, MM1.S
Method in brief: as §2

MV4-11 = experiment: Cellular MV4-11 viability assay (CellTiter-Glo, 72 hours); format: cell-based; conditions: Homo sapiens
Method in brief: as §3

[1] = read-out: CDK2 enzymatic activity (IC50 range)
[2] = read-out: CDK1 enzymatic activity (IC50 range)
[3] = read-out: CDK5 enzymatic activity (IC50 range)
[4] = read-out: CDK7 enzymatic activity (IC50 range)

CC(C)c1cnn2c(NCc3c(Cl)cccc3-n3ccc(C(C)(C)O)n3)nc(Nc3cc[nH]c3)nc12 [Compound 277]
IC50 (CDK2/Cyclin A; read-out: CDK2 enzymatic activity (IC50 activity range)): > 1000 nM | IC50 (CDK1/Cyclin B; read-out: CDK1 enzymatic activity (IC50 activity range)): > 1000 nM | IC50 (OVCAR-3): > 10000 nM | IC50 (A2780): > 10000 nM | IC50 (CDK5/p25; read-out: CDK5 enzymatic activity (IC50 activity range)): > 1000 nM | CDK1/CDK7: Selectivity of CDK7 inhibition over CDK1 inhibition (CDK7/Cyclin H/MNAT1; CDK1/CDK7): C (C=less than 20 fold) | CDK2/CDK7: Selectivity of CDK7 inhibition over CDK2 inhibition (CDK7/Cyclin H/MNAT1; CDK2/CDK7): C (C=less than 20 fold) | CDK5/CDK7: Selectivity of CDK7 inhibition over CDK5 inhibition (CDK7/Cyclin H/MNAT1; CDK5/CDK7): C (C=less than 20 fold) | IC50 (CDK7/Cyclin H/MNAT1; read-out: CDK7 enzymatic activity (IC50 activity range)): > 1000 nM

CC(C)c1cnn2c(NCc3ccccc3-n3cc4ccc(C(F)(F)F)cc4n3)nc(N3CCC(N)CC3)nc12 [Compound 104]
IC50 (H460): < 1000 nM | IC50 (MOLT-4): 1000 to 10000 nM | IC50 (RPMI-8226): < 1000 nM | IC50 (CDK2/Cyclin A; [1]): > 1000 nM | IC50 (CDK1/Cyclin B; [2]): > 1000 nM | IC50 (HCT116): < 1000 nM | IC50 (MM.1S): ≤ 1000 nM | IC50 (CDK5/p25; [3]): 100 to 1000 nM | CDK1/CDK7: Selectivity of CDK7 inhibition over CDK1 inhibition (CDK7/Cyclin H/MNAT1; CDK7 over CDK1): A (A=greater than 200 fold) | CDK2/CDK7: Selectivity of CDK7 inhibition over CDK2 inhibition (CDK7/Cyclin H/MNAT1; CDK7 over CDK2): A (A=greater than 200 fold) | CDK5/CDK7: Selectivity of CDK7 inhibition over CDK5 inhibition (CDK7/Cyclin H/MNAT1; CDK7 over CDK5): B (B=less than 200 fold, but greater than 20 fold) | IC50 (CDK7/Cyclin H/MNAT1; [4]): < 100 nM | IC50 (MV4-11): < 1000 nM

CC(C)c1cnn2c(NCc3ccccc3-n3cc4cc(F)ccc4n3)nc(N3CCC(N)CC3)nc12 [Compound 108]
IC50 (H460): < 1000 nM | IC50 (MOLT-4): 1000 to 10000 nM | IC50 (RPMI-8226): < 1000 nM | IC50 (CDK2/Cyclin A; [1]): 100 to 1000 nM | IC50 (CDK1/Cyclin B; [2]): 100 to 1000 nM | IC50 (HCT116): < 1000 nM | IC50 (MM.1S): ≤ 1000 nM | IC50 (CDK5/p25; [3]): 100 to 1000 nM | CDK1/CDK7: Selectivity of CDK7 inhibition over CDK1 inhibition (CDK7/Cyclin H/MNAT1; CDK7 over CDK1): B (B=less than 200 fold, but greater than 20 fold) | CDK2/CDK7: Selectivity of CDK7 inhibition over CDK2 inhibition (CDK7/Cyclin H/MNAT1; CDK7 over CDK2): B (B=less than 200 fold, but greater than 20 fold) | CDK5/CDK7: Selectivity of CDK7 inhibition over CDK5 inhibition (CDK7/Cyclin H/MNAT1; CDK7 over CDK5): B (B=less than 200 fold, but greater than 20 fold) | IC50 (CDK7/Cyclin H/MNAT1; [4]): < 100 nM | IC50 (MV4-11): < 1000 nM

Cc1cccc(-n2cccn2)c1CNc1nc(N2CCC(N)CC2)nc2c(C(C)C)cnn12 [Compound 43]
IC50 (H460): < 1000 nM | IC50 (MOLT-4): 1000 to 10000 nM | IC50 (RPMI-8226): 1000 to 10000 nM | IC50 (CDK2/Cyclin A; [1]): > 1000 nM | IC50 (CDK1/Cyclin B; [2]): > 1000 nM | IC50 (HCT116): < 1000 nM | IC50 (MM.1S): 1000 to 10000 nM | IC50 (CDK5/p25; [3]): > 1000 nM | CDK1/CDK7: Selectivity of CDK7 inhibition over CDK1 inhibition (CDK7/Cyclin H/MNAT1; CDK7 over CDK1): A (A=greater than 200 fold) | CDK2/CDK7: Selectivity of CDK7 inhibition over CDK2 inhibition (CDK7/Cyclin H/MNAT1; CDK7 over CDK2): A (A=greater than 200 fold) | CDK5/CDK7: Selectivity of CDK7 inhibition over CDK5 inhibition (CDK7/Cyclin H/MNAT1; CDK7 over CDK5): A (A=greater than 200 fold) | IC50 (CDK7/Cyclin H/MNAT1; [4]): < 100 nM | IC50 (MV4-11): < 1000 nM

CC(C)c1cnn2c(NCc3ccccc3-c3nccc4c(NC(=O)CCCN(C)C)cccc34)nc(N3CCC(N)CC3)nc12 [Compound 90]
IC50 (H460): 1000 to 10000 nM | IC50 (MOLT-4): > 10000 nM | IC50 (RPMI-8226): 1000 to 10000 nM | IC50 (CDK2/Cyclin A; [1]): > 1000 nM | IC50 (CDK1/Cyclin B; [2]): > 1000 nM | IC50 (HCT116): 1000 to 10000 nM | IC50 (MM.1S): > 10000 nM | IC50 (CDK5/p25; [3]): > 1000 nM | CDK1/CDK7: Selectivity of CDK7 inhibition over CDK1 inhibition (CDK7/Cyclin H/MNAT1; CDK7 over CDK1): A (A=greater than 200 fold) | CDK2/CDK7: Selectivity of CDK7 inhibition over CDK2 inhibition (CDK7/Cyclin H/MNAT1; CDK7 over CDK2): A (A=greater than 200 fold) | CDK5/CDK7: Selectivity of CDK7 inhibition over CDK5 inhibition (CDK7/Cyclin H/MNAT1; CDK7 over CDK5): A (A=greater than 200 fold) | IC50 (CDK7/Cyclin H/MNAT1; [4]): < 100 nM | IC50 (MV4-11): < 1000 nM

CC(C)c1cnn2c(NCc3ccccc3-n3cc4ccccc4n3)nc(N3CCC(N)CC3)nc12 [Compound 72]
IC50 (H460): < 1000 nM | IC50 (MOLT-4): < 1000 nM | IC50 (RPMI-8226): < 1000 nM | IC50 (CDK2/Cyclin A; [1]): 100 to 1000 nM | IC50 (CDK1/Cyclin B; [2]): 100 to 1000 nM | IC50 (HCT116): < 1000 nM | IC50 (MM.1S): ≤ 1000 nM | IC50 (CDK5/p25; [3]): 100 to 1000 nM | CDK1/CDK7: Selectivity of CDK7 inhibition over CDK1 inhibition (CDK7/Cyclin H/MNAT1; CDK7 over CDK1): A (A=greater than 200 fold) | CDK2/CDK7: Selectivity of CDK7 inhibition over CDK2 inhibition (CDK7/Cyclin H/MNAT1; CDK7 over CDK2): B (B=less than 200 fold, but greater than 20 fold) | CDK5/CDK7: Selectivity of CDK7 inhibition over CDK5 inhibition (CDK7/Cyclin H/MNAT1; CDK7 over CDK5): B (B=less than 200 fold, but greater than 20 fold) | IC50 (CDK7/Cyclin H/MNAT1; [4]): < 100 nM | IC50 (MV4-11): < 1000 nM
